Biological target: Mitogen-activated protein kinase 1 (Homo sapiens, UniProt P28482)
Experiment: Enzymatic Assay: Compounds were tested in an enzymatic assay using human ERK-2 (Mitogen Activated Kinase 1), recombinantly expressed as an n-terminal 6-His fusion protein in E. coli and corresponding to aa 8-360. […] Test compounds were diluted in DMSO in 3-fold serial dilutions at 100x final concentrations.

Mitogen-activated protein kinase 1, sequence (P28482 whole entry, the tested form may be a part): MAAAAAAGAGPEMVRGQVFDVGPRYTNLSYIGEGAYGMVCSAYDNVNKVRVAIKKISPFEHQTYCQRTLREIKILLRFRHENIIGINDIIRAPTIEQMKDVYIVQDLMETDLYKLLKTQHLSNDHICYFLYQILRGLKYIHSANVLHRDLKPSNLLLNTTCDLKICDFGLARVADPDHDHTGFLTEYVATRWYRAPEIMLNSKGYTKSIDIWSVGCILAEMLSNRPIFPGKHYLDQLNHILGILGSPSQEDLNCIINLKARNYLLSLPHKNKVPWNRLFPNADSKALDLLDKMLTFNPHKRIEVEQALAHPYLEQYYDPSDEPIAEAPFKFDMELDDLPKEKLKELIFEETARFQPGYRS

IC50 [nM]	SMILES
144	CC(C)Nc1ncc2c(n1)CN(C(=O)N[C@@H](c1ccc(C(F)(F)F)c(F)c1)c1cccc(=O)[nH]1)CC2
2.39	CC1CC(Nc2ncc3c(n2)CN(C(=O)N[C@H](CO)c2ccc(Cl)c(F)c2)CC3)CCO1 (some centres not stated)

— ChEMBL document CHEMBL3886249, “Serine/threonine kinase inhibitors” (2015)
